Measurements reported in paper PMC6396489 (Cell Communication and Signaling : CCS, 2019).
Read-outs that look alike come from different tables or passages of the source.

Assays:
Src = test system: Src; parameters: method as in PMID 18722484; conditions: cited from earlier work
NIH3T3 cells [1] = assay: Wound-healing assay; format: cell-based
Method: To perform the wound-healing assay, NIH3T3 cells were seeded in 6-well tissue culture plates to a final density of 3 × 10^5 cells/well and maintained at 37 °C and 5% CO2 for 24 h until confluence before being starved overnight in DMEM containing 1% bovine serum. The cell monolayer was wounded by scratching with a 10 μL standard sterile pipette tip. The scratched monolayer was rinsed twice with DMEM containing 1% bovine serum to remove cell debris and incubated with or without 50 μM GroPIns4P. […] In detail, the input image was processed by applying a Sobel edge detector [26], obtaining a gradient image. A threshold process was then performed on the gradient image to obtain the foreground corresponding to the wound area. Particularly, all of the pixels of the gradient image with values less than the threshold θ were assumed to be pixels of the foreground (experimentally, θ is set to 4). Finally, procedures based on morphological operations were used to remove small regions and to fill holes of the wound area to complete detection and analysis.

Shp1 = target: T1, Shp1 (Homo sapiens, UniProt P29350); assay: Isothermal titration calorimetry, Shp1 WT; format: binding
T1 construct: the C-terminal truncated form of human Shp1 cDNA (His-Shp1; amino acids 1–529); made in house; host or cells: E. coli BL21(DE3)
T1 sequence (P29350 1-529 isoform P29350-3): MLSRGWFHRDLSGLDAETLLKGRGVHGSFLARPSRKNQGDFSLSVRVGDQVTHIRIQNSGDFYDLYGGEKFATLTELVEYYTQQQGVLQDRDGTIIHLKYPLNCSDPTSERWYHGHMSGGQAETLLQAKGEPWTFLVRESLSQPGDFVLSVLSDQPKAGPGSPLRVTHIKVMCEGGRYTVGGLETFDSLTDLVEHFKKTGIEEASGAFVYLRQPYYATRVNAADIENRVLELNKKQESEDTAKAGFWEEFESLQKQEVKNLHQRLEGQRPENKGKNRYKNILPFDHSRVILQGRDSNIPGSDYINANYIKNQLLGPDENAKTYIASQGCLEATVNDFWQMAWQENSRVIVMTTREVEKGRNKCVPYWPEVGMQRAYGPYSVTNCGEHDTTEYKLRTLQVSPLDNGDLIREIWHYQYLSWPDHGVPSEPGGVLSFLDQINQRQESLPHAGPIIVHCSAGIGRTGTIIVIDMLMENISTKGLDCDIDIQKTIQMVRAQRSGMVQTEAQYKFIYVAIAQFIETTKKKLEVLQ
Method: ITC measurements were performed by using a Nano-ITC III (TA instruments, New Castle, DE, USA) with a reaction cell volume of 1 ml kept at 25 °C. A protein solution of 10 μM was titrated into the calorimetric cell with a solution of 50–100 μM of the ligand GroPIns4P (Ins4P) in the syringe. A sequence of 16 injections of 15 μL volume was programmed with a stirring speed of 250 rpm at 500 s intervals. Protein samples were prepared with protein solutions at 25 °C in 20 mM Tris buffer pH 7.4 with 50 mM NaCl and 1 mM TCEP. To minimise the differences in buffer composition and pH between cell and syringe, both ligand and protein solutions were prepared with the same batch of buffer. The heat of dilution of the GroPIns4P into the buffer solution was measured in a separate experiment and appropriate corrections were made. The heat evolved after each ligand injection was obtained from the integral of the calorimetric signal. Raw data were integrated, corrected for non-specific heats and normalized for concentration. The equilibrium dissociation constant (KD), binding enthalpy (ΔbH) and binding stoichiometry (n) were obtained by nonlinear regression of the experimental data using a model of independent binding sites, by means of the NanoAnalyze software. Experiments were performed in duplicate.

NIH3T3 cells [2] = assay: Immunofluorescence analysis for membrane ruffling; format: cell-based
Method: NIH3T3 and Raw 264.7 cells were cultured in DMEM supplemented with 2 mM L-glutamine, 50 U/mL penicillin, […] streptomycin, and 10% CS or heat-inactivated FBS (30 min at 55 °C), respectively. NIH3T3 cells were transfected with different plasmids using the Lipofectamine LTX/plus reagent according to the manufacturer’s instructions. For immunofluorescence experiments, NIH3T3 cells were seeded onto glass coverslips in 24-well plates at a concentration suitable for 70% confluence without transfection or 50% confluence in the case of Lipofectamine-based cell transfection. In the latter, approximately 24 h after seeding, NIH3T3 cells were transiently transfected with different plasmids with the Lipofectamine LTX/plus reagent following the manufacturer’s instructions. Before treatments, NIH3T3 cells were serum-starved in DMEM with 2 mM glutamine, 50 U/mL penicillin and streptomycin for 16–20 h. The cells were then treated with different stimuli and/or inhibitors, as indicated in the text and/or Figure legends. Addition of exogenous GroPIns4P was at 50 μM (unless otherwise indicated), a concentration eliciting an intracellular concentration of about 1.5 μM, as calculated from the Nernst equation (with T = 300 K, z = − 3, and Veq = − 30 mV, an average value for cultured, non-excitable cells).
For ruffle assessment after treatments, immunofluorescence labelling and morphological analysis of the cells were performed as previously described in a double-blind fashion. In brief, the assessment was based on a null score (zero) for the absence of the feature, followed by a score of one or two according to the level of response of each individual cell, where one indicate that ruffling was confined to one area of the cell (< 25% of the cell circumference), and two indicate that two or more discrete areas of the cell contained ruffles. The cell phenotypes were quantified by counting 150 cells in each sample. The data were then expressed as percentage scores (±SD) for each treatment response compared with its respective control. Scoring of the control cells was performed in the same way to evaluate the presence of the features of interest in untreated cells.

Shp1 and Src = test system: T2, Shp1 and Src; assay: Co-immunoprecipitation of Src with Shp1 in NIH3T3 cells; format: cell-based; conditions: 50 μM for 5 min
T2 construct: expressed in transfected cells; host or cells: NIH3T3
Method: NIH3T3 cells were washed with ice-cold PBS and lysed on ice in buffer containing 20 mM Tris-HCl, pH 8.0, 150 mM NaCl, 1% Triton-X100, 5 mM Na3VO4, 30 mM β-glycerophosphate and 10 mM NaF supplemented with the protease inhibitor cocktail and processed for SDS-PAGE. Westen blotting was performed with the relevant antibodies. For immunoprecipitation experiments, 2 μg of an anti-Shp1 antibody or 5 μg of an anti-Src antibody were added to 1 mg of NIH3T3 cell lysates at 4 °C and incubated overnight. The samples were then incubated with A or G protein agarose beads for 1 h at 4 °C. Western blotting was performed from the washed and denatured complexes.

**Q.** With O=P(O)(O)OC1C(O)C(O)C(OP(=O)(O)OCC(O)CO)C(O)C1O (stereo not shown) [GroPIns4P, glycerophosphoinositol 4-phosphate] as the compound, how does the “direct interaction with Src” value (Src) read?
**A.** Its value is “no direct interaction”.

**Q.** What about the “increase of wound closure compared to the control” value (NIH3T3 cells [1]; 50 μM, 6 h after scratching) of the same compound?
**A.** Its value is 65%.

**Q.** And the wound closure (NIH3T3 cells [1]; 50 μM, at 30 h)?
**A.** The wound closure was “almost complete”.

**Q.** What about the “rescue of EGF effect in cells treated with cPLA2α inhibitor” value (NIH3T3 cells [1]; EGF 10 ng/ml, cPLA2α inhibitor, 50 μM GroPIns4P) of the same compound?
**A.** The value was “could be rescued”.

**Q.** And the Kd (Shp1; ITC, 25 °C, Shp1 WT, read-out: KD)?
**A.** The Kd was 300 nM.

**Q.** What about the Kd (Shp1; summary over ITC, Trp fluorescence and SPR competition, read-out: affinity of the binding) of the same compound?
**A.** Its Kd is 300 to 800 nM.

**Q.** And the “increase in peripheral ruffles versus the control” value (NIH3T3 cells [2]; 50 μM GroPIns4P for 5 min)?
**A.** The value was 2.5–3 fold.

**Q.** What about the “effect on ruffle formation” value (NIH3T3 cells [2]; cells expressing Shp1 S118A/R138E/S140A, 50 μM GroPIns4P) of the same compound?
**A.** Its value is “significantly inhibited”.

**Q.** And the membrane ruffle formation (NIH3T3 cells [2]; cells over-expressing Shp1-C455S, 50 μM GroPIns4P)?
**A.** The membrane ruffle formation was “did not lead to membrane ruffle formation”.

**Q.** What about the actin ruffle formation (NIH3T3 cells [2]; cells over-expressing Shp1 S12A/R32E/S34A, 50 μM GroPIns4P) of the same compound?
**A.** Its actin ruffle formation is “resulted in the induction of actin ruffles”.

**Q.** And the “increase in the interaction between Shp1-C455S and Src” value (Shp1 and Src; NIH3T3 over-expressing Shp1-C455S)?
**A.** The value was 2.2 fold.

**Q.** And the “change in Shp1-Src complex formation” value (Shp1 and Src; NIH3T3 over-expressing Shp1 S118A/R138E/S140A)?
**A.** Its value is “no change”.

**Q.** What about the “increase of Shp1-Src interaction compared with the control” value (Shp1 and Src; NIH3T3 over-expressing Shp1 WT) of the same compound?
**A.** Its value is “about 1.6 fold”.
